Experimental data as given in PubChem BioAssay (NCI).
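Where inhibition never reached the appropriate level, the endpoint shown equals the highest concentration tested. Otherwise, values were interpolated linearly from a five-concentration, 48-hour dose response in 96-well plates. GI50 is the concentration that inhibits growth by half. At the TGI there is no net growth.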

Tests used:
Test in all cases: NCI-60 cell line screen, 48 h
[1] = test system: 786-0 renal
[2] = test system: A498 renal
[3] = test system: A549 NSCLC
[4] = test system: ACHN renal
[5] = test system: BT-549 breast
[6] = test system: CAKI-1 renal
[7] = test system: CCRF-CEM leukemia
[8] = test system: COLO 205 colon
[9] = test system: DU-145 prostate
[10] = test system: EKVX NSCLC
[11] = test system: HCC-2998 colon
[12] = test system: HCT-116 colon
[13] = test system: HCT-15 colon
[14] = test system: HL-60(TB) leukemia
[15] = test system: HOP-62 NSCLC
[16] = test system: HOP-92 NSCLC
[17] = test system: HT29 colon
[18] = test system: K-562 leukemia
[19] = test system: KM12 colon
[20] = test system: LOX IMVI melanoma
[21] = test system: M14 melanoma
[22] = test system: MALME-3M melanoma
[23] = test system: MCF7 breast
[24] = test system: MDA-MB-231 breast
[25] = test system: MDA-MB-435
[26] = test system: MOLT-4 leukemia
[27] = test system: NCI-H226 lung
[28] = test system: NCI-H23 lung
[29] = test system: NCI-H460 lung
[30] = test system: NCI/ADR-RES ovarian
[31] = test system: OVCAR-3 ovarian
[32] = test system: OVCAR-4 ovarian
[33] = test system: OVCAR-5 ovarian
[34] = test system: OVCAR-8 ovarian
[35] = test system: PC-3 prostate
[36] = test system: RPMI-8226 leukemia
[37] = test system: RXF 393 renal
[38] = test system: SF-268 CNS
[39] = test system: SF-539 CNS
[40] = test system: SK-MEL-2 melanoma
[41] = test system: SK-MEL-28 melanoma
[42] = test system: SK-MEL-5 melanoma
[43] = test system: SK-OV-3 ovarian
[44] = test system: SN12C renal
[45] = test system: SNB-19 CNS
[46] = test system: SNB-75 CNS
[47] = test system: SR leukemia
[48] = test system: SW-620 colon
[49] = test system: T-47D breast
[50] = test system: TK-10 renal
[51] = test system: U251 CNS
[52] = test system: UACC-257 melanoma
[53] = test system: UACC-62 melanoma
[54] = test system: UO-31 renal
[55] = test system: HS 578T breast
[56] = test system: IGROV1 ovarian
[57] = test system: NCI-H522 lung
[58] = test system: SF-295 CNS

NC(=O)NS(=O)(=O)c1ccc(N2N=C(C(F)(F)F)CC2c2cc(C(F)(F)F)cc(C(F)(F)F)c2)cc1 (stereo unspecified)
GI50 [1]: 7.14 µM
TGI [1]: 22.7 µM
GI50 [2]: 2.24 µM
TGI [2]: 8.15 µM
GI50 [3]: 3.36 µM
TGI [3]: 13.5 µM
GI50 [4]: 3.95 µM
TGI [4]: 14.9 µM
GI50 [5]: 4.28 µM
TGI [5]: 16.5 µM
GI50 [6]: 5 µM
TGI [6]: 19.5 µM
GI50 [7]: 2.94 µM
TGI [7]: 19.9 µM
GI50 [8]: 2.96 µM
TGI [8]: 12 µM
GI50 [9]: 3.54 µM
TGI [9]: 15.1 µM
GI50 [10]: 2.82 µM
TGI [10]: 11.3 µM
GI50 [11]: 10 µM
TGI [11]: 23.9 µM
GI50 [12]: 3.07 µM
TGI [12]: 14.7 µM
GI50 [13]: 2.99 µM
TGI [13]: 13.6 µM
GI50 [14]: 3.89 µM
TGI [14]: > 100 µM
GI50 [15]: 6.53 µM
TGI [15]: 22.4 µM
GI50 [16]: 12.9 µM
TGI [16]: 29.3 µM
GI50 [17]: 3.1 µM
TGI [17]: 13 µM
GI50 [18]: 4.98 µM
TGI [18]: > 100 µM
GI50 [19]: 1.83 µM
TGI [19]: 4.65 µM
GI50 [20]: 5.76 µM
TGI [20]: 19.1 µM
GI50 [21]: 4.96 µM
TGI [21]: 21.1 µM
GI50 [22]: 13.9 µM
TGI [22]: 39.9 µM
GI50 [23]: 1.85 µM
TGI [23]: 4.86 µM
GI50 [24]: 10.2 µM
TGI [24]: 22.7 µM
GI50 [25]: 2.57 µM
TGI [25]: 7.16 µM
GI50 [26]: 4.73 µM
TGI [26]: 55.5 µM
GI50 [27]: 7.21 µM
TGI [27]: 21.8 µM
GI50 [28]: 5.32 µM
TGI [28]: 19.2 µM
GI50 [29]: 3.47 µM
TGI [29]: 11.7 µM
GI50 [30]: 6.95 µM
TGI [30]: 21.6 µM
GI50 [31]: 1.83 µM
TGI [31]: 4.12 µM
GI50 [32]: 2.9 µM
TGI [32]: 12.8 µM
GI50 [33]: 13.7 µM
TGI [33]: 29.8 µM
GI50 [34]: 4.78 µM
TGI [34]: 20 µM
GI50 [35]: 2.35 µM
TGI [35]: 12.2 µM
GI50 [36]: 1.38 µM
TGI [36]: 3.74 µM
GI50 [37]: 2.86 µM
TGI [37]: 5.77 µM
GI50 [38]: 2.96 µM
TGI [38]: 12.3 µM
GI50 [39]: 11.9 µM
TGI [39]: 24.7 µM
GI50 [40]: 1.2 µM
TGI [40]: 9.5 µM
GI50 [41]: 4.39 µM
TGI [41]: 16.7 µM
GI50 [42]: 3.07 µM
TGI [42]: 12 µM
GI50 [43]: 7.82 µM
TGI [43]: 21.3 µM
GI50 [44]: 2.1 µM
TGI [44]: 4.51 µM
GI50 [45]: 8.03 µM
TGI [45]: 22.4 µM
GI50 [46]: 2.86 µM
TGI [46]: 15.3 µM
GI50 [47]: 3.08 µM
TGI [47]: > 100 µM
GI50 [48]: 4.1 µM
TGI [48]: 15.7 µM
GI50 [49]: 3.73 µM
TGI [49]: 17.2 µM
GI50 [50]: 9.25 µM
TGI [50]: 24.8 µM
GI50 [51]: 3.94 µM
TGI [51]: 15.2 µM
GI50 [52]: 2.58 µM
TGI [52]: 7.18 µM
GI50 [53]: 10.4 µM
TGI [53]: 22.7 µM
GI50 [54]: 0.0862 µM
TGI [54]: 13.2 µM

CCOC1Oc2ccc(C)cc2C(=O)/C1=C\Nc1ccc(C(N)=O)cc1 (stereo unspecified)
GI50 [1]: 16.3 µM
TGI [1]: 30.4 µM
GI50 [3]: 33.3 µM
TGI [3]: > 100 µM
GI50 [4]: 14.9 µM
TGI [4]: 40.6 µM
GI50 [5]: 15.5 µM
TGI [5]: 62.9 µM
GI50 [6]: 20.6 µM
TGI [6]: 44.8 µM
GI50 [7]: 20.3 µM
TGI [7]: 65.3 µM
GI50 [8]: 8.52 µM
TGI [8]: > 100 µM
GI50 [9]: 21.7 µM
TGI [9]: 60.4 µM
GI50 [10]: 25.8 µM
TGI [10]: 69 µM
GI50 [11]: 20.3 µM
TGI [11]: 39 µM
GI50 [12]: 13.4 µM
TGI [12]: 26.2 µM
GI50 [13]: 11.4 µM
TGI [13]: 30.6 µM
GI50 [15]: 17.6 µM
TGI [15]: 33.7 µM
GI50 [16]: 79.9 µM
TGI [16]: > 100 µM
GI50 [55]: 22.8 µM
TGI [55]: 64.4 µM
GI50 [17]: 37.5 µM
TGI [17]: > 100 µM
GI50 [56]: 18.9 µM
TGI [56]: 72.5 µM
GI50 [18]: 22.6 µM
TGI [18]: 66.6 µM
GI50 [19]: 16.6 µM
TGI [19]: 34.3 µM
GI50 [20]: 13.9 µM
TGI [20]: 34.4 µM
GI50 [21]: 17.2 µM
TGI [21]: 33.4 µM
GI50 [23]: 25 µM
TGI [23]: > 100 µM
GI50 [24]: 16.7 µM
TGI [24]: 36 µM
GI50 [25]: 20.1 µM
TGI [25]: 50.8 µM
GI50 [26]: 46.2 µM
TGI [26]: > 100 µM
GI50 [27]: 24.3 µM
TGI [27]: 50.7 µM
GI50 [28]: 17.4 µM
TGI [28]: 38.2 µM
GI50 [29]: 33.3 µM
TGI [29]: > 100 µM
GI50 [57]: 20.8 µM
TGI [57]: 47.3 µM
GI50 [30]: 17.7 µM
TGI [30]: 44.7 µM
GI50 [31]: 18.8 µM
TGI [31]: 46.8 µM
GI50 [32]: 99.8 µM
TGI [32]: > 100 µM
GI50 [33]: 22 µM
TGI [33]: 47.1 µM
GI50 [34]: 17.7 µM
TGI [34]: 40.3 µM
GI50 [35]: 32.9 µM
TGI [35]: > 100 µM
GI50 [36]: 18.6 µM
TGI [36]: 90.5 µM
GI50 [37]: 22.9 µM
TGI [37]: 49 µM
GI50 [38]: 44 µM
TGI [38]: > 100 µM
GI50 [58]: 18.1 µM
TGI [58]: 45.9 µM
GI50 [39]: 18.4 µM
TGI [39]: 53.2 µM
GI50 [40]: 34.4 µM
TGI [40]: > 100 µM
GI50 [41]: 51.7 µM
TGI [41]: > 100 µM
GI50 [42]: 13.8 µM
TGI [42]: 30.2 µM
GI50 [43]: 21.1 µM
TGI [43]: > 100 µM
GI50 [44]: 17.6 µM
TGI [44]: 38.8 µM
GI50 [45]: 18.4 µM
TGI [45]: > 100 µM
GI50 [46]: 44.5 µM
TGI [46]: > 100 µM
GI50 [48]: 15.2 µM
TGI [48]: 51.2 µM
GI50 [49]: 6.13 µM
TGI [49]: > 100 µM
GI50 [50]: 15.7 µM
TGI [50]: 36 µM
GI50 [51]: 13.2 µM
TGI [51]: 34.2 µM
GI50 [52]: 25.5 µM
TGI [52]: 52.3 µM
GI50 [53]: 13.6 µM
TGI [53]: 30.8 µM
GI50 [54]: 21.2 µM
TGI [54]: 59.7 µM
